Reference: patent publication US20240270758A1, “PYRIDINO-OR PYRIMIDO-CYCLIC COMPOUND, PREPARATION METHOD THEREFOR AND MEDICAL USE THEREOF” (Genfleet Therapeutics (Shanghai) Inc., priority 2021, published 2024)

What was measured:
Format in all cases: cell-based, human
[1] = tested on: AsPC-1 cells (KRAS^G12D mutation); assay: Cell proliferation inhibition assay (3D, CellTiter-Glo), AsPC-1; settings: 3D cell model, 5 days
Source text: (§1) AsPC-1 was purchased from ATCC; Cat. NO.: CRL-1682; AGS was purchased from ATCC; Cat. NO.: CRL-1739; RPMI1640 was purchased from Gibco; Cat. NO.: 11875-093 2235123; F12K was purchased from Gibco; Cat. NO.: 21127-022; FBS was purchased from Gibco; Cat. NO.: 10099-141C; Trypsin (containing EDTA) was purchased from Gibco; Cat. NO.: 25200-072; CellTiter Glo-3D was purchased from Progema; Cat. NO.: G9683; 384-well sphere plates were purchased from coming; Cat. NO.: 3830; White background opaque 384-well plates were purchased from coming; Cat. NO.: 3570; Cell Counters were purchased from CHEMOMETEC; Model NO.: NC-200; microplate reader was purchased from PerkinElmer; Model NO.: Envison;
(§2) AsPC-1 is an endogenous human pancreatic cancer cell containing KRAS^G12D mutation, which is cultured in RPMI-1640 medium containing 10% FBS; AGS human gastric cancer cell line containing KRAS^G12D mutation, cultured in F-12K medium containing 10% FBS. Cells in the logarithmic growth phase were taken, digested with trypsin (containing EDTA), harvested and counted, and inoculated with 800 AsPC-1 cells/well or 400 AGS cells/well, respectively, in 384-well sphere plates and cultured overnight at 5% C02 to establish a 3D cell model. A 3.16-fold gradient concentration stock solution of 1000× compound was prepared using DMSO, diluted 100-fold into a 10× compound stock solution using media, and a 10× compound stock solution was added to each cell culture well the day after cell inoculating at a final concentration of 1× with a DMSO content of 0.1%. DMSO was used as an experimental control (control) and culture medium as a blank control (blank). After the addition of compounds, the cells were cultured for 5 days. […] CellTiter-Glo working solution was added to each well, mixed well, and incubated for 30 min. After standing for 30 min at room temperature, 40 μl of the mixed solution was transferred to a white background opaque 384-well plate. Luminescence chemiluminescence value was read on a microplate reader, and the cell proliferation inhibition ratio was calculated, IR (%)=(RLU control-RLU compound)/(RLU control-RLU blank)×100%. XLFit four-parameter method was used to fit the gradient dilution concentration of compounds and the corresponding cell proliferation inhibition ratio, and the IC50 value was calculated. […] Results for exemplary of the example compounds are shown in Table 3 below. - indicates not detected.

[2] = tested on: p-ERK in AGS cells (KRAS^G12D mutation); assay: Cell p-ERK detection assay; settings: 3 h incubation, HTRF
Procedure: AGS was purchased from ATCC; Cat. NO.: CRL-1739; F12K was purchased from Gibco; Cat. NO.: 21127-022; FBS was purchased from Gibco; Cat. NO.: 10099-141C; Trypsin (containing EDTA) was purchased from Gibco; Cat. NO.: 25200-072; DMSO was purchased from VWRAMRESCO; Cat. NO.: 0231-500ML; 96-well cell culture plate was purchased from Corning; Cat. NO.: 3599; An white background opaque 96-well plate was purchased from Cisbio; Cat. NO.: 66PL96025; Advance ERK phospho-T202/Y204 kit was purchased from Cisbio; Cat. NO.: 64AERPEH; Cell Counters were purchased from CHEMOMETEC; Model NO.: NC-200; microplate reader was purchased from PerkinElmer; Model NO.: Envison.
AGS is an endogenous human gastric adenocarcinoma cell line containing KRAS^G12D mutation, cultured in F12K+10% FBS medium. On the first day of the experiment, cells in the logarithmic growth phase were taken, digested with trypsin (containing EDTA), collected, and counted, and approximately 20,000 cells/well were inoculated in 96-well cell culture plates and cultured overnight in a 5% CO2 incubator. A 1000×3.16-fold gradient concentration stock of the compound was prepared using DMSO, diluted 200-fold into a 5× compound stock using the medium described above, and a 5× compound stock was added to each cell culture well the day after cell inoculating at a final concentration of 1× and a DMSO content of 0.1%. DMSO was used as an experimental control. After the compound was added and the incubation was continued for 3 h, the medium in the culture wells was removed, […] of cell lysis solution (from Advance ERK phospho-T202/Y204 kit, the same below) was added to each well, mixed well and incubated for 30 min, then […] of the mixed solution was transferred to a white background opaque 96-well plate, and another well was taken as a blank well with adding […] of cell lysis solution. After the transfer, […] of p-ERK HTRF antibody mixed solution (from Advance ERK phospho-T202/Y204 kit) was added to each well, after incubation for 4 h, HTRF fluorescence value (RLU) was read by a microplate reader, and p-ERK level inhibition ratio of the compound was calculated IR (%)=(RLU control-RLU compound)/(RLU control-RLU blank)×100%, compound concentration and corresponding cell p-ERK level inhibition ratio were fitted using Prism 8 four-parameter method, and IC50 value was calculated.

[3] = tested on: AGS cells (KRAS^G12D mutation); assay: Cell proliferation inhibition assay (3D, CellTiter-Glo), AGS; settings: 3D cell model, 5 days
Source text: as §1, §2

SMILES | IC50 ([1]; Homo sapiens, ASPC1, 120 h) [nM] | IC50 ([2]; Homo sapiens, AGS, 3 h) [nM] | IC50 ([3]; Homo sapiens, AGS, 120 h) [nM] | IC50 [1] [nM] | IC50 [2] [nM] | IC50 [3] [nM]
C#Cc1c(F)ccc2cc(O)cc(-c3ncc4c(N5C[C@H]6CC[C@@H](C5)N6)nc(OCC56CC(=C)CN5[C@H]5C[C@H]5C6)nc4c3F)c12 (stereo partly drawn) [Example Z210, 4-(4-((1R,5S)-3,8-diazabicyclo[3.2.1]octan-3-yl)-8-fluoro-2-(((1aS,6aS)-4-methylenehexahydrocyclopropa[b]pyrrolizin-5a(3H)-yl)methoxy)pyrido[4,3-d]pyrimidin-7-yl)-5-ethynyl-6-fluoronaphthalen-2-ol] | 176 | 16.6 | 26 |  |  | 
C#Cc1c(F)ccc2cc(O)cc(-c3ncc4c(N5C[C@H]6CC[C@@H](C5)N6)nc(OCC56CC(=C)CN5CC(=C)C6)nc4c3Cl)c12 [Example Z211, 4-(4-((1R,5S)-3,8-diazacyclo[3.2.1]octan-3-yl)-8-chloro-2-((2,6-dimethylenetetrahydro-1H-pyrrolizin-7a(5H)-yl)methoxy)pyrido[4,3-d]pyrimidin-7-yl)-5-ethynyl-6-fluoronaphthalen-2-ol] |  |  |  | 71.9 | 5.47 | 4.8
C#Cc1cccc2cc(O)cc(-c3ncc4c(N5C[C@H]6CC[C@@H](C5)N6)nc(OCC56CC(=C)CN5CCC65CC5)nc4c3F)c12 (stereo partly drawn) [Example Z106, 4-(4-((1R,5S)-3,8-diazabicyclo[3.2.1]octan-3-yl)-8-fluoro-2-((6′-methylenetetrahydrospiro[cyclopropane-1,1′-pyrrolizin]-7a′(5′H)-yl)methoxy)pyrido[4,3-d]pyrimidin-7-yl)-5-ethynylnaphthalen-2-ol] | 14.7 | 1.36 | 4.6 |  |  | 
C#Cc1cccc2cc(O)cc(-c3ncc4c(N5C[C@H]6CC[C@@H](C5)N6)nc(OCC56CCCN5CCC6=C)nc4c3F)c12 (stereo partly drawn) [Example Z25, 4-(4-((1R,5S)-3,8-diazabicyclo[3.2.1]octan-3-yl)-8-fluoro-2-((1-methylenetetrahydro-1H-pyrrolizin-7a(5H)-yl)methoxy)pyrido[4,3-d]pyrimidin-7-yl)-5-ethynylnaphthalen-2-ol] | 70.7 | 6.84 | 24.9 |  |  | 
C#Cc1cccc2cc(O)cc(-c3ncc4c(N5C[C@H]6CC[C@@H](C5)N6)nc(OCC56CCC7(CC7)N5CC(=C)C6)nc4c3F)c12 (stereo partly drawn) [Example Z22, 4-(4-((1R,5S)-3,8-diazabicyclo[3.2.1]oct-3-yl)-8-fluoro-2-((6′-methylenetetrahydrospiro[cyclopropane-1,3′-pyrrolizin]-7a′(5′H)-yl)methoxy)pyrido[4,3-d]pyrimidin-7-yl)-5-ethynylnaphthalen-2-ol] | 75.4 | 2.41 | 10.8 |  |  | 
C#Cc1cccc2cc(N)c(F)c(-c3ncc4c(N5C[C@H]6CC[C@@H](C5)N6)nc(OCC56CC(=C)CN5CC(=C)C6)nc4c3F)c12 [Example Z213, 4-(4-((1R,5S)-3,8-diazabicyclo[3.2.1]octan-3-yl)-2-((2,6-dimethylenetetrahydro-1H-pyrrolizin-7a(5H)-yl)methoxy)-8-fluoropyrido[4,3-d]pyrimidin-7-yl)-5-ethynyl-3-fluoronaphthalen-2-amine] | 335 | 62.9 | 57.5 |  |  | 
C#Cc1c(F)ccc2cc(O)cc(-c3ncc4c(N5C[C@H]6CC[C@@H](C5)N6)nc(OC[C@@]56CCCN5CC(=C)C6)nc4c3F)c12 [Example Z12, 4-(4-((1R,5S)-3,8-diazabicyclo[3.2.1]octan-3-yl)-8-fluoro-2-(((S)-2-methylenetetrahydro-1H-pyrrolizin-7a(5H)-yl)methoxy)pyrido[4,3-d]pyrimidin-7-yl)-5-ethynyl-6-fluoronaphthalen-2-ol] | 12.5 | 1.83 | 2.8 |  |  | 
C#Cc1cccc2cc(O)cc(-c3ncc4c(N5C[C@H]6CC[C@@H](C5)N6)nc(OCC56CCCN5CC(=C)C6)nc4c3F)c12 (stereo partly drawn) [Example Z8, 4-(4-((1R,5S)-3,8-diazabicyclo[3.2.1]octan-3-yl)-8-fluoro-2-((2-methylenetetrahydro-1H-pyrrolizin-7a(5H)-yl)methoxy)pyrido[4,3-d]pyrimidin-7-yl)-5-ethynylnaphthalen-2-ol] | 57.7 | 2.78 | 5.3 |  |  | 
C#Cc1cccc2cc(O)cc(-c3ccc4c(N5CC6CCC(C5)N6)nc(OCC56CCCN5CC(=C)C6)nc4c3F)c12 [Example Z99, 4-(4-(1R,5S)-3,8-diazabicyclo[3.2.1]octan-3-yl)-8-fluoro-2-((2-methylenetetrahydro-1H-pyrrolizin-7a(5H)-yl)methoxy)quinazolin-7-yl)-5-ethynylnaphthalen-2-ol] |  |  |  | 36.6 | 2.9 | 5.2
C#Cc1cccc2cc(O)cc(-c3ncc4c(N5C[C@@H]6CC[C@@H](N6)[C@H]5C)nc(OCC56CC(C)CN5CC(C)C6)nc4c3F)c12 (stereo partly drawn) [Example Z207, 4-(2-((2,6-dimethyltetrahydro-1H-pyrrolizin-7a(5H)-yl)methoxy)-8-fluoro-4-((1R, 2R, 5S)-2-methyl-3,8-diazabicyclo[3.2.1]octan-3-yl)pyrido[4,3-d]pyrimidin-7-yl)-5-ethynylnaphthalen-2-ol] | 91.1 | 13.4 | 32 |  |  | 
C#Cc1c(F)ccc2cc(O)cc(-c3ncc4c(N5C[C@H]6CC[C@@H](C5)N6)nc(OCC56CC(=C)CN5CC(=C(F)F)C6)nc4c3F)c12 (stereo partly drawn) [Example Z215] |  |  |  | 49.4 | 1.19 | 5.13
C#Cc1cccc2cc(N)cc(-c3ncc4c(N5C[C@H]6CC[C@@H](C5)N6)nc(OCC56CC(=C)CN5CC(=C)C6)nc4c3F)c12 [Example Z206, 4-(4-((1R,5S)-3,8-diazabicyclo[3.2.1]octan-3-yl)-2-((2,6-dimethylenetetrahydro-1H-pyrrolizin-7a(5H)-yl)methoxy)-8-fluoropyrido[4,3-d]pyrimidin-7-yl)-5-ethynylnaphthalen-2-amine] |  |  |  | 35.4 | 5.47 | 20.1
C#Cc1c(Cl)ccc2cc(O)cc(-c3ncc4c(N5C[C@H]6CC[C@@H](C5)N6)nc(OCC56CC(=C)CN5CC(=C)C6)nc4c3F)c12 [Example Z216, 4-(4-((1R,5S)-3,8-diazabicyclo[3.2.1]octan-3-yl)-2-((2,6-dimethylenetetrahydro-1H-pyrrolizin-7a(5H)-yl)methoxy)-8-fluoropyrido[4,3-d]pyrimidin-7-yl)-6-chloro-5-ethynylnaphthalen-2-ol] | 43.7 | 1.22 | 3.14 |  |  | 
